From US8470776B2, “Conjugates of disorazoles and their derivatives with cell-binding molecules, novel disorazole derivatives, processes of manufacturing and uses thereof” (Aeterna Zentaris GmbH, priority 2006, dated 2013)
Converted amounts (≈) assume the structure as drawn.

Legend:
[1] = tested on: hGnRH-R negative cell line LTK−; assay: GnRH-receptor dependent proliferation assay, LTK-; type: cell-based; conditions: 30 min exposure, vital cells vs untreated control = 100%
Experimental: (§1) The dose-dependent receptor-mediated inhibition of cell proliferation of selected compounds of the invention was investigated.
(§2) To study these effects a human GnRH receptor (hGnRH-R) positive cell line (5C6; Beckers et al., Eur. J. Biochem. 1995, 231: 535-543) and an hGnRH-R negative cell line (LTK^−; ECACC No. 85011432) was used.
(§3) Respective cells were exposed to 1 mL culture medium in 24 well multi-titer-plates (MTPs) with a cell number of 15000 cells per well. The cell number is adjusted in such a way that after 5 days of testing the untreated control cells are still in the exponential growth phase.
(§4) Test compounds are given to the cultured cells after 4 hours of initial growth (adherence) in a volume of 100 μL to yield the final concentrations given in table 2.
(§5) After 30 min of incubation at 37° C. the entire culture medium is sucked off and the cells are washed twice with culture medium without test compounds. After the washing the cells are placed into an incubator (at 37° C., 5% CO2 and 95% atmospheric humidity) and incubated for further 4 days.
(§6) For the determination of the cell number after incubation the cells are detached using trypsin/EDTA and centrifuged. The number of vital cells and the total cell number are counted using a Vi-Cell Analyzer (Beckman Coulter).
(§7) The number of vital cells is analyzed in comparison with untreated control cells (=100%). Only cell groups (respective wells) are considered of which the total cell viability is more than 90%, i.e. inhibition of cell proliferation by unspecific toxicity can be excluded.
(§8) The proliferation status of untreated control cells after 96 hours is set to 100%.

[2] = tested on: human cervical carcinoma cell line KB/HeLa; assay: cells; type: cell-based; conditions: for IC50 KB/HELA: XTT, 45 h incubation
Excerpt: (§9) Selected compounds of the invention were investigated for their antiproliferative activity in a proliferation test on established tumor cell lines.
(§10) The test used determines the cellular dehydrogenase activity and makes possible a determination of the cell vitality and indirectly the cell count.
(§11) The cell lines used are the human cervical carcinoma cell line KB/HeLa (ATCC CCL17), the ovarian adenocarcinoma cell line SKOV-3 (ATCC HTB77), the human glioblastoma cell line SF-268 (NCI-503138) and the lung carcinoma cell line NCI-H460 (NCI-503473). In addition, for the investigation of the cell cycle-specific action of the compounds of the invention, an RKOp27 cell system was used (Schmidt M et al. Oncogene 2000, 19(20): 2423-2429). RKO is a human colon carcinoma cell line (ATCC CRL-2577), in which the cell cycle inhibitor p27^kip1 induced by means of the ecdysone expression system is expressed and can be led to a cell cycle arrest specifically in […]. A nonspecifically acting substance inhibits the proliferation independently of whether the RKO cell is or is not arrested in G1 or G2. Cell cycle-specific substances such as, for example, tubulin inhibitors are, however, only cytotoxic if cells are not arrested and the cell cycle is passed through.
(§12) The adherently growing tumor cell lines KB/HeLa, SKOV-3, SF-268 and NCI-H460 were cultured under standard conditions in an incubator at 37° C., 5% CO2 and 95% atmospheric humidity. On experimental day 1, the cells are detached using trypsin/EDTA and pelleted by centrifugation. Subsequently, the cell pellet is resuspended in the respective culture medium at the corresponding cell count and reacted in a 96-well microtiter plate. The plates are then cultured overnight in the incubator. The test substances are prepared as 1 mg/ml stock solutions in DMSO and diluted to the appropriate concentrations on experimental day 2 using culture medium. The substances in culture medium are then added to the cells and incubated in the incubator for 45 h. As a control, cells which are not treated with test substance are used. For the XTT assay, 1 mg/ml of XTT (sodium 3′-[1-(phenylaminocarbonyl)-3,4-tetrazolium]-bis(4-methoxy-6-nitro)benzenesulfonic acid) is dissolved in RPMI-1640 medium without Phenol Red. Additionally, a 0.383 mg/ml PMS (N-methyldibenzopyrazine methylsulfate) solution in phosphate-buffered saline solution (PBS) is prepared. On experimental day 4, 75 μl/well of XTT-PMS mixture is pipetted onto the cell plates which in the meantime have been incubated with the test substances for 45 h. For this, shortly before use, the XTT solution is mixed with the PMS solution in the ratio 50:1 (vol:vol). The cell plates are then incubated in the incubator for a further 3 h and the optical density (OD490 nm) is determined in a photometer. By means of the OD490 nm determined, the percentage inhibition is calculated relative to the control and plotted semilogarithmically in the form of a concentration-action curve. The IC50 is calculated by means of a regression analysis from the concentration-action curve using the program Graphpad Prism.

[3] = tested on: human glioblastoma cell line SF-268; assay: cells; type: cell-based; conditions: for IC50 SF-268: XTT, 45 h incubation
Excerpt: as §9, §10, §11, §12

[4] = tested on: lung carcinoma cell line NCI-H460; assay: cells; type: cell-based, human; conditions: for IC50 NCI-H460: XTT, 45 h incubation
Excerpt: as §9, §10, §11, §12

[5] = tested on: ovarian adenocarcinoma cell line SKOV-3; assay: cells; type: cell-based, human; conditions: for IC50 SKOV-3: XTT, 45 h incubation
Excerpt: as §9, §10, §11, §12

[6] = tested on: RKOp27 cells (human colon carcinoma cell line RKO), p27kip1 induced; assay: cells; type: cell-based; conditions: for IC50 RKOp27 induced: p27kip1 induced with 3 μM muristerone A, XTT, 45 h
Excerpt: as §11, §12
(§13) The assay is carried out in 96-well plates. […] By comparison of the activity on induced and noninduced cells, conclusions on the mechanism of action (cell cycle specificity) of the therapeutics can be drawn. […] cells are inoculated in approximately three-fold higher cell count, since division no longer takes place during the assay in comparison with uninduced cells (20000 cells/well induced, 6250 cells/well not induced). The controls are untreated cells (+/−induction). The induction is carried out with 3 μM muristerone A. On the 1st day, the cells are exposed (+/−muristerone A) and incubated at 37° C. for 24 h. On day 2, the test substance is added (control DMSO) and incubation is continued at 37° C. for a further 45 h before a standard XTT assay is carried out.

[7] = tested on: RKOp27 cells (human colon carcinoma cell line RKO), p27kip1 not induced; assay: cells; type: cell-based; conditions: for IC50 RKOp27: without expression of p27kip1, XTT, 45 h
Excerpt: as §11, §12, §13

[8] = tested on: human GnRH receptor (hGnRH-R) positive cell line 5C6; assay: GnRH-receptor dependent proliferation assay, 5C6; type: cell-based; conditions: 30 min exposure, vital cells vs untreated control = 100%
Experimental: as §1, §2, §3, §4, §5, §6, §7, §8

[9] = tested on: GnRH receptor positive, human ovarian carcinoma cell line OVCAR-3; assay: OVCAR-3 tumors in nude mice, single i.v. dose; type: in vivo, CD 1 nu/nu nude mice; conditions: for Average tumor size day 18: once on day 0, tail vein; for Average tumor size day 0: tail vein, day 0 (baseline before dosing)
Experimental: 30 CD 1 nu/nu nude mice were inoculated subcutaneously with the GnRH receptor positive, human ovarian carcinoma cell line OVCAR-3 (5 million cells per animal). The experiment was started after formation of solid tumors. 5 animals per dose group were used.
On day 0 of the experiment, the individual tumor volume was determined by palpation and set to 100%. Test compounds were administered subsequently on day 0 of the experiment by injection into the tail vein of the test animals.
A standard volume of 10 ml of 0.9% saline per kg (200 μl per 20 g mouse) containing the test compound in the required concentration was administered once only on day 0 of the experiment.
The tumor size was determined again by palpation on day 18 of the experiment.
In the case of appearance of additional tumors, the volumes were added.

cell models = conditions: reported in literature; cited from earlier work
mammalian cells = conditions: Elnakady et al. 2004; cited from earlier work
[10] = tested on: various human tumor cell lines; conditions: nano- and picomolar concentrations; WO 2004/024149; cited from earlier work
[11] = tested on: paclitaxel- and vindesine-resistant cell lines; conditions: WO 2004/024149; cited from earlier work

C/C=C/C(O)C(C)(C(=O)OC)C1C\C=C/C=C/C=C/c2nc(co2)C(=O)OC(C(C)(C(=O)OC)C(/C=C/C)OC(=O)CCC(=O)NCCCC[C@H](NC(=O)[C@H](Cc2ccc(O)cc2)NC(=O)[C@H](CO)NC(=O)[C@H](Cc2c[nH]c3ccccc23)NC(=O)[C@H](Cc2cnc[nH]2)NC(=O)[C@@H]2CCC(=O)N2)C(=O)N[C@@H](CC(C)C)C(=O)N[C@@H](CCCNC(=N)N)C(=O)N2CCC[C@H]2C(=O)NCC(N)=O)C\C=C/C=C/C=C/c2nc(co2)C(=O)O1 (stereo partly drawn) [compound 16, Disorazole Z Mono Hemi Succinyl [D-Lys^6]LHRH]
proliferation status after 96 hours, cell line LTK−, 0.1 nM ([1]; 0.1 nM): 101.8%
proliferation status after 96 hours, cell line LTK−, 1 nM ([1]; 1 nM): 105.8%
proliferation status after 96 hours, cell line LTK−, 10 nM ([1]; 10 nM): 103.4%
proliferation status after 96 hours, cell line LTK−, 100 nM ([1]; 100 nM): 61.7%
IC50 KB/HELA [2]: 18.92 ng/mL (≈ 9.09 nM)
IC50 SF-268 [3]: 17.8 ng/mL (≈ 8.55 nM)
IC50 NCI-H460 [4]: 9.235 ng/mL (≈ 4.43 nM)
IC50 SKOV-3 [5]: 7.683 ng/mL (≈ 3.69 nM)
IC50 RKOp27 induced [6]: >3160 ng/mL
IC50 RKOp27 [7]: 5.18 ng/mL (≈ 2.49 nM)
proliferation status after 96 hours, cell line 5C6, 0.1 nM ([8]; 0.1 nM): 83.8%
proliferation status after 96 hours, cell line 5C6, 1 nM ([8]; 1 nM): 80.9%
proliferation status after 96 hours, cell line 5C6, 10 nM ([8]; 10 nM): 54.1%
proliferation status after 96 hours, cell line 5C6, 100 nM ([8]; 100 nM): 21.9%
Average tumor size day 18 ([9]; 0.1 mg/kg = 43 nmol/kg, day 18): 76
Average tumor size day 0 ([9]; 0.1 mg/kg = 43 nmol/kg): 79
Average tumor size day 18 ([9]; 0.5 mg/kg = 215 nmol/kg, day 18): 40
Average tumor size day 0 ([9]; 0.5 mg/kg = 215 nmol/kg): 74

C/C=C/[C@H](O)C(C)(C)[C@@H]1C\C=C/C=C\C=C\[C@H](OC)Cc2nc(co2)C(=O)O[C@H](C(C)(C)[C@@H](O)/C=C/C)C/C=C\[C@H]2O[C@H]2/C=C/C=C\c2nc(co2)C(=O)O1 [disorazol A1, disorazole A1, reference compound]
IC50 KB/HELA [2]: 0.049 ng/mL (≈ 0.0646 nM)
IC50 SF-268 [3]: 0.125 ng/mL (≈ 0.165 nM)
IC50 NCI-H460 [4]: 0.022 ng/mL (≈ 0.029 nM)
IC50 SKOV-3 [5]: 0.027 ng/mL (≈ 0.0356 nM)
antiproliferative action in cell models (cell models): possesses an antiproliferative action
induction of apoptosis in mammalian cells (mammalian cells): induces apoptosis
IC50 RKOp27 induced [6]: >3160 ng/mL
IC50 RKOp27 [7]: 0.049 ng/mL (≈ 0.0646 nM)

C/C=C/C(O)C(C)(C)C1C/C=C\C2OC2C=CC(OC)Cc2nc(co2)C(=O)OC(C(C)(C)C(O)/C=C/C)C/C=C\C2OC2/C=C\C=Cc2nc(co2)C(=O)O1 (centres unmarked) [disorazol E1, disorazole E1, reference compound]
cytotoxic action on various human tumor cell lines [10]: possess cytotoxic action
IC50 KB/HELA [2]: 0.17 ng/mL (≈ 0.219 nM)
IC50 SF-268 [3]: 0.474 ng/mL (≈ 0.612 nM)
IC50 NCI-H460 [4]: 0.065 ng/mL (≈ 0.0839 nM)
IC50 SKOV-3 [5]: 0.074 ng/mL (≈ 0.0955 nM)
IC50 RKOp27 induced [6]: >3160 ng/mL
IC50 RKOp27 [7]: 0.17 ng/mL (≈ 0.219 nM)
activity against paclitaxel- and vindesine-resistant cell lines [11]: active

C/C=C/C(O)C(C)(C(=O)OC)C1C\C=C/C=C/C=C/c2nc(co2)C(=O)OC(C(C)(C(=O)OC)C(O)/C=C/C)C\C=C/C=C/C=C/c2nc(co2)C(=O)O1 (centres unmarked) [disorazol Z, disorazole Z, reference compound]
IC50 ([2]; Homo sapiens, HeLa, 45 h, read-out: IC50 KB/HELA): 1.01 ng/mL (≈ 1.35 nM)
IC50 ([3]; Homo sapiens, SF-268, 45 h, read-out: IC50 SF-268): 1.28 ng/mL (≈ 1.72 nM)
IC50 ([4]; Homo sapiens, NCI-H460, 45 h, read-out: IC50 NCI-H460): 0.67 ng/mL (≈ 0.897 nM)
IC50 ([5]; Homo sapiens, SK-OV-3, 45 h, read-out: IC50 SKOV-3): 0.504 ng/mL (≈ 0.675 nM)
IC50 ([6]; Homo sapiens, RKOp27, 45 h, read-out: IC50 RKOp27 induced): > 3160 ng/mL
IC50 ([7]; Homo sapiens, RKOp27, 45 h, read-out: IC50 RKOp27): 0.659 ng/mL (≈ 0.882 nM)
Average tumor size day 18 ([9]; 0.16 mg/kg = 215 nmol/kg, day 18): 146
Average tumor size day 0 ([9]; 0.16 mg/kg = 215 nmol/kg): 92
suppression of tumor growth (in words) ([9]; OVCAR-3 tumors, single i.v. dose, day 18): moderate suppression of tumor growth

disorazole D1
cytotoxic action on various human tumor cell lines [10]: possess cytotoxic action
